For assay [1], the system named is T98 human glioblastoma cells. In words: MTT cytotoxicity assay, T98. Conditions: 48 h incubation, 3 independent experiments, read-out: IC50 (mean ± SE). Format: cell-based. The method, then: Human brain tumor cells lines U87 MG (Cat.# HTB-14), U118 MG (Cat. # HTB-15), U138 (Cat # HTB-16), U373 MG (CAT. # HTB-17), and T98G (Cat. # CRL-1690) and breast cancer cell lines BT-20 (Cat # HTB-19), MDA-MB-231 (Cat # HTB-26), MDA-MB-361 (Cat # HTB-27), and MCF-7 (Cat # HTB-22) were obtained from American Type Culture Collection (ATCC, Rockville, Md.) and maintained as continuous cell lines in Dulbecco's modified Eagles's medium (U87, U118, U138, U373, T98 and BT-20) or Leibovitz's L-15 medium (MDA-MB-231 and MDA-MB-361). All media were supplemented with 10% fetal calf serum (FCS), 4 mM glutamine, 100 U/ml penicillin G and […] streptomycin sulfate. All tissue culture reagents were obtained from Life Technologies Inc. (GIBCO-BRL, Gaithersburg, Md.).
The cytotoxicity of [VO(SO4)(Me2-Phen)2] against human cancer cell lines was analyzed using the MTT (3-[4,5-dimethylthiazol-2-yl]-2,5-diphenyl tetrazolium bromide) assay (Boehringer Mannheim Corp., Indianapolis, Ind.) as described previously (Narla et al., Clin Cancer Res., 4: 1405-1414, 1998). […] The absorbance at 540 nm (a reference wavelength of 690 nm was used) of the solution in each well was measured using a microplate reader (Labsystems). The percent survival and the IC50 values were calculated using Graphpad Prism v2.0 (Graphpad Software, Inc., San Diego, Calif.) as described previously (Narla et al., Supra). […]
A general note: Formazan colour is commonly taken as a measure of viable cells.

In another assay the test system is U87 cells. Briefly: In vitro invasion assay, Matrigel-coated Boyden chambers, U87. Conditions: 24 h preincubation, 3 experiments, read-out: Mean IC50 inhibition of invasion through Matrigel matrix. It counts as cell-based, human. The procedure:
Tumor invasion of the basement membrane is a crucial step in the complex multistage process that leads to metastatic spread. Tumor cells cross the basement membrane as they initially invade the lymphatic or vascular beds during dissemination and as they penetrate their target tissues. […]
Invasion of cancer cells treated with [VO(SO4)(Me2-Phen)2] was assayed using Matrigel-coated Costar 24-well transwell cell culture chambers (“Boyden chambers”) with 8.0-μm-pore polycarbonate filter inserts as described previously (Narla et al., Clin Cancer Res, 4: 2463-2471, 1998; Ghosh et al., Anticancer Drug Des, 14: 403-410, 1999; Albini et al., J Cell Biol, 105: 1867-1872, 1987). […] The cells were trypsinized, washed twice with serum-free medium containing BSA, counted and resuspended in a serum-free medium at 1×10^5 cells/ml. […] The invasive cells that migrated to the lower side of the filter were fixed, stained with Hema-3 solution and counted under a light microscope. Five to 10 random fields per filter were counted to determine the invasive fraction. The invasive fractions of cells treated with [VO(SO4)(Me2-Phen)2] were compared to those of DMSO-treated control cells and the percent inhibition of invasiveness was determined. […]

The test system of the next assay is U87 glioblastoma cells. Briefly: In situ detection of apoptosis (TdT-mediated dUTP nick-end labeling), U87. It counts as cell-based, human. Conditions: dUTP-FITC labeling, read-out: apoptotic EC50. The procedure:
Apoptosis was detected using an in situ cell death detection kit (Boehringer Mannheim Corp., Indianapolis, Ind.) as described previously (Albini et al., J. Cell Biol., 105: 1867-1872, 1987; Huang et al., J Biol Chem., 272: 2927-2935, 1997). Cells were incubated with [VO(SO4)(Me2-Phen)2] for 48 hours at 37° C., fixed, permeabilized, incubated with the reaction mixture containing terminal deoxynucleotidyl transferase (TdT) and fluorescein isothiocyanate (FITC)-conjugated dUTP and counterstained with propidium iodide. Cells were transferred to slides and viewed with confocal laser scanning microscope (Bio-Rad MRC 1024) mounted on a Nikon Eclipse E800 series upright microscope as previously reported (Narla et al., Supra).
Administration of [VO(SO4)(Me2-Phen)2] to cells induced apoptotic or programmed cell death as determined using the TdT-mediated dUTP nick-end labeling of exposed 3′-OH termini of DNA with dUTP-FITC.

With `Cc1ccnc2c1ccc1c(C)ccnc12.Cc1ccnc2c1ccc1c(C)ccnc12.O=S(=O)([O-])[O-].[O]=[V+2]` [[VO(SO4)(Me2-Phen)2], bis(4,7-dimethyl-1,10-phenanthroline) sulfatooxovanadium (IV)], the IC50 in assay [1] came to 3.9 ± 0.5 µM; in the assay on U87 cells it was 0.78 ± 0.4 µM. The half-maximal effective concentration (EC50) in the assay with U87 glioblastoma cells was determined as 4.2 ± 0.9 µM.

What is called IC50 is the concentration at which inhibition is half-maximal. As usually defined, the EC50 is the concentration that produces a half-maximal response.

For the origin of these results see patent publication US6878388B1, “Vanadium compounds for treating proliferative cell disorders” (Parker Hughes Institute, priority 2000, dated 2005).
